Results reported in patent publication US8071625B2, “Certain chemical entities, compositions, and methods” (Cytokinetics, Inc., priority 2006, dated 2011).

Biological target: T1, crosslinked smooth muscle actomyosin (chicken gizzard smooth muscle myosin subfragment-1 crosslinked to cardiac or skeletal actin) (Gallus gallus, UniProt P10587)
T1 construct: chicken gizzard smooth muscle myosin subfragment-1; from tissue; host or cells: chicken gizzard
Assay: Lead optimization pyruvate kinase/horseradish peroxidase/pyruvate oxidase-coupled ATPase assay (compound dose response)
Format: biochemical
Conditions: read-out: IC50 Arithmetic Mean
Summary of the method: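 IC50 is the midpoint of a 4-parameter dose–response fit of Amplex Red fluorescence (480/615 nm). Buffer was 12 mM potassium PIPES pH 7.00 at 22 °C with 100 mM KCl, 2 mM MgCl2, 0.15 mM ATP and 2 mM phosphate, with PK/pyruvate oxidase/HRP coupling. Enzyme: smooth muscle myosin S1 crosslinked to cardiac or skeletal actin, dosed empirically by activity.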

IC50	Compound
6.39 µM	CCOC(=O)c1ccc(NC(=O)OCC2(C(=O)NCc3ccccc3Cl)CCOCC2)cc1 [ethyl 4-{[(4-{N-[(2-chlorophenyl)methyl]carbamoyl}-2H-3,4,5,6-tetrahydropyran-4-yl)methoxy]carbonylamino}benzoate]
18 µM	CCc1ccc(NC(=O)OCC2(C(=O)OC)CCN(C(=O)CN)CC2)cc1 [methyl 1-(2-aminoacetyl)-4-{[N-(4-ethylphenyl)carbamoyloxy]methyl}piperidine-4-carboxylate]
1.52 µM	CCc1ccc(NC(=O)OCC2(C(=O)NCc3ccccc3Cl)CCN(CC(=O)OC)CC2)cc1 [methyl 2-(4-{N-[(2-chlorophenyl)methyl]carbamoyl}-4-{[N-(4-ethylphenyl)carbamoyloxy]methyl}piperidyl)acetate]
2.29 µM	COC(=O)c1ccccc1CNC(=O)C1(COC(=O)Nc2ccc(C(F)(F)F)cc2)CCN(C(=O)CN)CC1 [methyl 2-({[1-(2-aminoacetyl)-4-({N-[4-(trifluoromethyl)phenyl]carbamoyloxy}methyl)-4-piperidyl]carbonylamino}methyl)benzoate]
18.6 µM	CCc1ccc(NC(=O)NC2(C(=O)NCc3ccccc3Cl)CCN(C(=O)OC)C2)cc1 (stereo not drawn) [methyl 3-{N-[(2-chlorophenyl)methyl]carbamoyl}-3-{[(4-ethylphenyl)amino]carbonylamino}pyrrolidinecarboxylate]
0.474 µM	CCc1ccc(NC(=O)OCC2(C(=O)NCc3ccccc3Cl)CCCN(C(=O)OC)C2)cc1 (stereo not drawn) [methyl 3-{N-[(2-chlorophenyl)methyl]carbamoyl}-3-{[N-(4-ethylphenyl)carbamoyloxy]methyl}piperidinecarboxylate]
0.426 µM	CCc1ccc(NC(=O)OCC2(C(=O)NCc3ccccc3Cl)CCN(C(=O)CCC(=O)OC)CC2)cc1 [methyl 4-(4-{N-[(2-chlorophenyl)methyl]carbamoyl}-4-{[N-(4-ethylphenyl)carbamoyloxy]methyl}piperidyl)-4-oxobutanoate]
0.53 µM	CCc1ccc(NC(=O)OCC2(C(=O)NCc3ccccc3Cl)CCN(C(=O)OC)CC2)cc1 [methyl 4-{N-[(2-chlorophenyl)methyl]carbamoyl}-4-{[N-(4-ethylphenyl)carbamoyloxy]methyl}piperidinecarboxylate]
1.81 µM	COC(=O)c1ccc(NC(=O)OCC2(C(=O)NCc3ccccc3Cl)CCN(C(=O)CN)CC2)cc1 [methyl 4-{[(1-(2-aminoacetyl)-4-{N-[(2-chlorophenyl)methyl]carbamoyl}-4-piperidyl)methoxy]carbonylamino}benzoate]
3.55 µM	COC(=O)c1ccc(NC(=O)OCC2(C(=O)NCc3ccccc3Cl)CCOCC2)cc1 [methyl 4-{[(4-{N-[(2-chlorophenyl)methyl]carbamoyl}-2H-3,4,5,6-tetrahydropyran-4-yl)methoxy]carbonylamino}benzoate]
18.5 µM	CCc1ccc(NC(=O)OC[C@H](C)N(CC(=O)OC(C)(C)C)C(=O)NCc2ccccc2Cl)cc1 [tert-butyl 2-(N-{(1S)-2-[N-(4-ethylphenyl)carbamoyloxy]-isopropyl}{[(2-chlorophenyl)methyl]amino}carbonylamino)acetate]
4.83 µM	CCc1ccc(NC(=O)OCC2(C(=O)NCc3ccccc3Cl)CCN(C(=O)C3CCN3C(=O)OC(C)(C)C)CC2)cc1 (stereo not drawn) [tert-butyl 2-[(4-{N-[(2-chlorophenyl)methyl]carbamoyl}-4-{[N-(4-ethylphenyl)carbamoyloxy]methyl}piperidyl)carbonyl]azetidinecarboxylate]
1.68 µM	CCc1ccc(NC(=O)OCC2(C(=O)NCc3ccccc3Cl)CCN(C(=O)C3COCCN3C(=O)OC(C)(C)C)CC2)cc1 (stereo not drawn) [tert-butyl 3-[(4-{N-[(2-chlorophenyl)methyl]carbamoyl}-4-{[N-(4-ethylphenyl)carbamoyloxy]methyl}piperidyl)carbonyl]morpholine-4-carboxylate]
3.21 µM	CCc1ccc(NC(=O)OCC2(C(=O)NCc3ccccc3Cl)CCN(C(=O)OC(C)(C)C)CC2)cc1 [tert-butyl 4-{N-[(2-chlorophenyl)methyl]carbamoyl}-4-{[N-(4-ethylphenyl)carbamoyloxy]methyl}piperidinecarboxylate]
0.083 µM	NCC(=O)N1CCC(COC(=O)Nc2ccc3ccccc3c2)(C(=O)NCc2ccccc2Cl)CC1 [{1-(2-aminoacetyl)-4-[(N-(2-naphthyl)carbamoyloxy)methyl](4-piperidyl)}-N-[(2-chlorophenyl)methyl]carboxamide]
0.126 µM	NCC(=O)N1CCC(COC(=O)Nc2ccc3c(c2)CCC3)(C(=O)NCc2ccccc2Cl)CC1 [{1-(2-aminoacetyl)-4-[(N-indan-5-ylcarbamoyloxy)methyl](4-piperidyl)}-N-[(2-chlorophenyl)methyl]carboxamide]
9.21 µM	NCC(=O)N1CCC(COC(=O)Nc2ccccc2)(C(=O)NCc2ccccc2Cl)CC1 [{1-(2-aminoacetyl)-4-[(N-phenylcarbamoyloxy)methyl](4-piperidyl)}-N-[(2-chlorophenyl)methyl]carboxamide]
5.54 µM	CCc1ccc(NC(=O)OC2CCCN(C(=O)NCc3ccccc3C)C2)cc1 (stereo not drawn) [{3-[N-(4-ethylphenyl)carbamoyloxy]piperidyl}-N-[(2-methylphenyl)methyl]carboxamide]

IC50	Compound
1.56 µM	CCc1ccc(NC(=O)O[C@@H]2CCCN(C(=O)NCc3ccccc3Cl)C2)cc1 [{(3R)-3-[N-(4-ethylphenyl)carbamoyloxy]piperidyl}-N-[(2-chlorophenyl)methyl]carboxamide]
10.2 µM	CCc1ccc(NC(=O)O[C@H]2CCCN(C(=O)NCc3ccccc3Cl)C2)cc1 [{(3S)-3-[N-(4-ethylphenyl)carbamoyloxy]piperidyl}-N-[(2-chlorophenyl)methyl]carboxamide]
0.086 µM	CCc1ccc(NC(=O)OCC2(C(=O)NCc3ccccc3C(F)(F)F)CCN(C(=O)CN)CC2)cc1 [{[1-(2-aminoacetyl)-4-(N-{[2-(trifluoromethyl)phenyl]methyl}carbamoyl)(4-piperidyl)]methoxy}-N-(4-ethylphenyl)carboxamide]
11.8 µM	CCc1ccc(NC(=O)OCC2(C(=O)NCc3ccc(C(F)(F)F)cc3F)CCN(C(=O)CN)CC2)cc1 [{[1-(2-aminoacetyl)-4-(N-{[2-fluoro-4-(trifluoromethyl)phenyl]methyl}carbamoyl)(4-piperidyl)]methoxy}-N-(4-ethylphenyl)carboxamide]
0.059 µM	CCc1ccc(NC(=O)OCCN(C)C(=O)NCc2cccc(Cl)c2Cl)cc1 [{[(2,3-dichlorophenyl)methyl]amino}-N-{2-[N-(4-ethylphenyl)carbamoyloxy]ethyl}-N-methylcarboxamide]
0.03 µM	CN(CCOC(=O)Nc1ccc2ccccc2c1)C(=O)NCc1ccccc1Cl [{[(2-chlorophenyl)methyl]amino}-N-methyl-N-[2-(N-(2-naphthyl)carbamoyloxy)ethyl]carboxamide]
1.41 µM	CN(CCOC(=O)Nc1ccc2ncccc2c1)C(=O)NCc1ccccc1Cl [{[(2-chlorophenyl)methyl]amino}-N-methyl-N-[2-(N-(6-quinolyl)carbamoyloxy)ethyl]carboxamide]
0.248 µM	CN(CCOC(=O)Nc1ccc(-c2ccccc2)cc1)C(=O)NCc1ccccc1Cl [{[(2-chlorophenyl)methyl]amino}-N-methyl-N-{2-[N-(4-phenylphenyl)carbamoyloxy]ethyl}carboxamide]
0.621 µM	CCc1ccc(NC(=O)OCC(C)(C)N(C)C(=O)NCc2ccccc2Cl)cc1 [{[(2-chlorophenyl)methyl]amino}-N-{2-[N-(4-ethylphenyl)carbamoyloxy]-tert-butyl}-N-methylcarboxamide]
0.355 µM	CCc1ccc(NC(=O)OCCN(CCCCO)C(=O)NCc2ccccc2Cl)cc1 [{[(2-chlorophenyl)methyl]amino}-N-{2-[N-(4-ethylphenyl)carbamoyloxy]ethyl}-N-(4-hydroxybutyl) carboxamide]
16.3 µM	CCc1ccc(NC(=O)OCCN(CCNC)C(=O)NCc2ccccc2Cl)cc1 [{[(2-chlorophenyl)methyl]amino}-N-{2-[N-(4-ethylphenyl)carbamoyloxy]ethyl}-N-[2-(methylamino)ethyl]carboxamide]
0.084 µM	CCc1ccc(NC(=O)OCCN(C)C(=O)NCc2ccccc2Cl)cc1 [{[(2-chlorophenyl)methyl]amino}-N-{2-[N-(4-ethylphenyl)carbamoyloxy]ethyl}-N-methylcarboxamide]
1.67 µM	CCc1ccc(NC(=O)OCCCN(C)C(=O)NCc2ccccc2Cl)cc1 [{[(2-chlorophenyl)methyl]amino}-N-{3-[N-(4-ethylphenyl)carbamoyloxy]propyl}-N-methylcarboxamide]
6.07 µM	CCc1ccc(NC(=O)OCCCCN(C)C(=O)NCc2ccccc2Cl)cc1 [{[(2-chlorophenyl)methyl]amino}-N-{4-[N-(4-ethylphenyl)carbamoyloxy]butyl}-N-methylcarboxamide]
2.08 µM	CCc1ccc(NC(=O)OCCN(C)C(=O)N(C)Cc2ccccc2Cl)cc1 [{[(2-chlorophenyl)methyl]methylamino}-N-{2-[N-(4-ethylphenyl)carbamoyloxy]ethyl}-N-methylcarboxamide]
1.12 µM	methyl (3S)-3-amino-4-(4-{N-[(2-chlorophenyl)methyl]carbamoyl}-4-{[N-(4-ethylphenyl)carbamoyloxy]methyl}piperidyl)-4-oxobutanoate
3.55 µM	tert-butyl 4-[(4-{N-[(2-chlorophenyl)methyl]carbamoyl}-4-{[N-(4-ethylphenyl)carbamoyloxy]methyl}piperidyl)carbonyl]piperidinecarboxylate

Compound	IC50
(tert-butoxy)-N-[2-(3-{N-[(2-chlorophenyl)methyl]carbamoyl}-3-{[N-(4-ethylphenyl)carbamoyloxy]methyl}piperidyl)-2-oxoethyl]carboxamide	1.43 µM
